Assay results reported in article PMC8869984, “Multifunctional Silver(I) Complexes with Metronidazole Drug Reveal Antimicrobial Properties and Antitumor Activity against Human Hepatoma and Colorectal Adenocarcinoma Cells” (Cancers, 2022).

Assays:
HepG2 cells [1] = test: MTT assay (mitochondrial activity), 72 h exposure; format: cell-based, human; conditions: Figure 6
Procedure: (§1) The human hepatoma (HepG2) and colorectal adenocarcinoma (Caco-2) cells were purchased from the American Type Culture Collection: ATCC HB-8065 and ATCC HTB-37, respectively. These cells were cultured in Minimum Essential Medium Eagle (MEME) (ATCC). The murine fibroblasts cell line (Balb/c 3T3 clone A31) (gift from the Department of Swine Diseases of the National Veterinary Research Institute in Pulawy) was cultured in Dulbecco’s Modified Eagle Medium (DMEM) (ATCC). The media were supplemented with 10% BCS (Balb/c 3T3), 10% FBS (HepG2), 20% FBS (Caco-2), 1% L-glutamine, 1% antibiotic solution. The cells were maintained in 75 cm^2 cell culture flasks (NUNC) in a humidified incubator at 37 °C in an atmosphere of 5% CO2. The medium was refreshed every two or three days, and the cells were trypsinized by 0.25% trypsin–0.02% EDTA after reaching 70–80% confluence. Single cell suspensions were prepared and adjusted to a density of 2 × 10^5 cell/mL^−1 (HepG2), 1 × 10^5 cell/mL^−1 (Caco-2) and 5 × 10^4 cell/mL^−1 (Balb/c 3T3). The cell suspension was transferred to 96-well plates (100 µL/well) and incubated for 24 h before the exposure to the studied compounds. Stock solutions of ligands and metal complexes were prepared in sterile water and diluted with culture medium to obtain a concentration range from 0.1 to 10 µM. The final concentration of sterile water was 0.1% in the medium. […] As a negative control, cultured cells were grown in the absence of studied compounds. Each concentration was tested in six replicates in three independent experiments. Cytotoxicity was assessed after 72 h of exposure of the cells to compounds. The medium was not changed during the incubation time.
The metabolic activity of living cells was assessed by the measurement of the activity of dehydrogenases. […] The plate was shaken for 15 min at room temperature and transferred to a microplate reader Synergy HTX multi-mode reader (BioTek® Instruments Inc., Winooski, VT, USA) to measure the absorbance at 570 nm, using a blank as a reference. Cytotoxicity was expressed as a percentage of the negative control. […]

HepG2 cells [2] = test: NRU assay (lysosomal activity), 72 h exposure; format: cell-based, human; conditions: Figure 6
Procedure: as §1
This method is based on staining living cells with neutral red, which readily diffuses through the plasma membrane and accumulates in lysosomes. […] After 10 min of shaking, the absorbance of the dissolved NR was measured using a Synergy HTX multi-mode reader (BioTek® Instruments Inc., Winooski, VT, USA) at 540 nm using a blank as a reference. Cytotoxicity was expressed as a percentage of the negative control. […]

HepG2 cells [3] = test: TPC assay (total protein content), 72 h exposure; format: cell-based, human; conditions: Figure 6
Procedure: as §1
This assay is based upon staining the total cellular protein (proliferation). After the incubation, the medium containing the drug was removed, and 100 µL Coomassie brilliant blue R-250 dye was added to each well. The plate was shaken for 10 min. Then, the stain was removed and the cells were rinsed twice with 100 µL of washing solution (glacial acetic acid/ethanol/water, 5:10:85, v:v:v). After that, 100 µL of the desorbing solution (1 M potassium acetate) was added, and plates were shaken again for 10 min. The absorbance was measured at 595 nm in a microplate reader Synergy HTX multi-mode reader (BioTek® Instruments Inc., Winooski, VT, USA) using a blank as a reference. Cytotoxicity was expressed as a percentage of the negative control.
The study was performed in three independent experiments. The obtained results are presented as mean values ± SD (standard deviation). The assessment of the cytotoxicity data used a one-way analysis of variance (ANOVA) followed by Dunnett’s post hoc test, which was applied to determine significance relative to the negative control.

S. aureus ATCC 25923 = test: micro-dilution broth method (MIC, MBC); format: cell-based, Staphylococcus aureus
M. luteus ATCC 10240 = test: micro-dilution broth method (MIC, MBC); format: cell-based, Micrococcus luteus
B. cereus ATCC 10876 = test: micro-dilution broth method (MIC, MBC); format: cell-based, Bacillus cereus
E. faecalis ATCC 29212 = test: micro-dilution broth method (MIC, MBC); format: cell-based, Enterococcus faecalis
P. acnes ATCC 11827 = test: micro-dilution broth method (MIC, MBC); format: cell-based, Propionibacterium acnes
H. pylori ATCC 43504 = test: micro-dilution broth method (MIC, MBC); format: cell-based
[4] = tested on: S. typhimurium ATCC 14028; test: micro-dilution broth method (MIC, MBC); format: cell-based, Salmonella Typhimurium
E. coli ATCC 25922 = test: micro-dilution broth method (MIC, MBC); format: cell-based, Escherichia coli
V. parvula ATCC 10790 = test: micro-dilution broth method (MIC, MBC); format: cell-based, Veillonella parvula
[5] = S. aureus ATCC 25923, value in brackets
[6] = M. luteus ATCC 10240, value in brackets
[7] = B. cereus ATCC 10876, value in brackets
[8] = E. faecalis ATCC 29212, value in brackets
[9] = P. acnes ATCC 11827, value in brackets
[10] = H. pylori ATCC 43504, value in brackets
[11] = S. typhimurium ATCC 14028, value in brackets
[12] = E. coli ATCC 25922, value in brackets
[13] = V. parvula ATCC 10790, value in brackets

Q: Which “lowest concentration with significant (p ≤ 0.05) effect” value (HepG2 cells [1]) does the source give for `Cc1ncc([N+](=O)[O-])n1CCO.Cc1ncc([N+](=O)[O-])n1CCO.Cc1ncc([N+](=O)[O-])n1CCO.Cc1ncc([N+](=O)[O-])n1CCO.O=S(=O)([O-])[O-].[Ag+].[Ag+]` [[Ag(MTZ)2]2SO4] here?
A: 5.0 µM

Q: What about the “lowest concentration with significant (p ≤ 0.05) effect” value (HepG2 cells [2]) of the same molecule?
A: 5.0 µM

Q: What about the “lowest concentration with significant (p ≤ 0.05) effect” value (HepG2 cells [3]) of the same molecule?
A: 5.0 µM

Q: What about the MBC (S. aureus ATCC 25923; S. aureus ATCC 25923) of the same molecule?
A: 15.6 mg/L

Q: What about the MIC (S. aureus ATCC 25923; S. aureus ATCC 25923) of the same molecule?
A: 15.6 mg/L

Q: And the MBC (S. aureus ATCC 25923; [5])?
A: 0.014 µM/mL

Q: What about the MIC (S. aureus ATCC 25923; [5]) of the same molecule?
A: 0.014 µM/mL

Q: And the MIC (M. luteus ATCC 10240; M. luteus ATCC 10240)?
A: 7.8 mg/L

Q: What about the MBC (M. luteus ATCC 10240; [6]) of the same molecule?
A: 0.12 µM/mL

Q: What about the MIC (M. luteus ATCC 10240; [6]) of the same molecule?
A: 0.007 µM/mL

Q: And the MIC (B. cereus ATCC 10876; B. cereus ATCC 10876)?
A: 62.5 mg/L

Q: What about the MBC (B. cereus ATCC 10876; [7]) of the same molecule?
A: 0.12 µM/mL

Q: What about the MIC (B. cereus ATCC 10876; [7]) of the same molecule?
A: 0.06 µM/mL

Q: And the MBC (E. faecalis ATCC 29212; E. faecalis ATCC 29212)?
A: 62.5 mg/L

Q: What about the MIC (E. faecalis ATCC 29212; E. faecalis ATCC 29212) of the same molecule?
A: 31.3 mg/L

Q: And the MBC (E. faecalis ATCC 29212; [8])?
A: 0.06 µM/mL

Q: And the MIC (E. faecalis ATCC 29212; [8])?
A: 0.03 µM/mL

Q: And the MBC (P. acnes ATCC 11827; P. acnes ATCC 11827)?
A: 500 mg/L

Q: What about the MBC (P. acnes ATCC 11827; [9]) of the same molecule?
A: 0.46 µM/mL

Q: And the MIC (P. acnes ATCC 11827; [9])?
A: 0.12 µM/mL

Q: And the MBC (H. pylori ATCC 43504; H. pylori ATCC 43504)?
A: 31.3 mg/L

Q: What about the MIC (H. pylori ATCC 43504; H. pylori ATCC 43504) of the same molecule?
A: 7.8 mg/L

Q: And the MBC (H. pylori ATCC 43504; [10])?
A: 0.03 µM/mL

Q: What about the MIC (H. pylori ATCC 43504; [10]) of the same molecule?
A: 0.008 µM/mL

Q: And the MBC ([4]; S. typhimurium ATCC 14028)?
A: 62.5 mg/L

Q: And the MIC ([4]; S. typhimurium ATCC 14028)?
A: 15.6 mg/L

Q: What about the MBC [4, 11] of the same molecule?
A: 0.06 µM/mL

Q: And the MIC [4, 11]?
A: 0.014 µM/mL

Q: And the MBC (E. coli ATCC 25922; E. coli ATCC 25922)?
A: 31.3 mg/L

Q: And the MIC (E. coli ATCC 25922; E. coli ATCC 25922)?
A: 15.6 mg/L

Q: What about the MBC (E. coli ATCC 25922; [12]) of the same molecule?
A: 0.03 µM/mL

Q: What about the MIC (E. coli ATCC 25922; [12]) of the same molecule?
A: 0.014 µM/mL

Q: And the MBC (V. parvula ATCC 10790; V. parvula ATCC 10790)?
A: 3.9 mg/L

Q: What about the MIC (V. parvula ATCC 10790; V. parvula ATCC 10790) of the same molecule?
A: 3.9 mg/L

Q: What about the MBC (V. parvula ATCC 10790; [13]) of the same molecule?
A: 0.004 µM/mL

Q: And the MIC (V. parvula ATCC 10790; [13])?
A: 0.004 µM/mL
